# pEC50: −log10 of the molar value.
# Columns and labels:
# human β3-AR = target: T1, human β3-AR (Homo sapiens, UniProt P13945); assay: cAMP accumulation (SPA) in CHO cells transfected with human β3-AR; type: cell-based; details: for pEC50: CHO cells transfected with human β3-AR, cAMP, 30 min at 37° C., 10^-9 M to 10^-5 M; for IA(β3): maximal response of compound relative to maximal response of isoproterenol at 10^-5 M
# T1 construct: Full-length β3-AR clones (402 amino acids) containing the last 6 amino acids of hβ3-AR; expressed in transfected cells; host or cells: CHO cells
# T1 sequence (P13945 whole entry): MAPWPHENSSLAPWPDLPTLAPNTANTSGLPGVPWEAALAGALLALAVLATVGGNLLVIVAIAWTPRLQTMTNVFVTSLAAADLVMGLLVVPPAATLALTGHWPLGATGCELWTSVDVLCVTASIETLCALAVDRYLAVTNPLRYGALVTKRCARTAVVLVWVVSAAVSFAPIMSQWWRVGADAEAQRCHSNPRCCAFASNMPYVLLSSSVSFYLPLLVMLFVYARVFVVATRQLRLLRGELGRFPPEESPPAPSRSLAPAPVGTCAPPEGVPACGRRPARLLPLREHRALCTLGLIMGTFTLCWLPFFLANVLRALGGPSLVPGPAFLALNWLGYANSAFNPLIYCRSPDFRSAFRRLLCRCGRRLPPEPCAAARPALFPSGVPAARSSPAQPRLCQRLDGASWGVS
# Experimental: Binding to the receptors was measured in Chinese Hamster ovary (CHO) cells that were transfected with β1-, β2-, and β3-AR's. The following briefly summarizes the procedures used and results obtained. Cloning of Human β3-AR Genomic DNA: cDNA was constructed by ligating four polymerase chain reaction (PCR) products using the following primers: an ATG-Narl fragment, sense primer [NT] and anti-sense primer [NT]; a […] fragment, [NT] as sense and [NT] as anti-sense primer; an […] fragment, sense primer [NT] and anti-sense primer [NT] and a Styl-TAG fragment, with sense primer [NT] and anti-sense primer [NT]. The corresponding primer sequences are described in Mantzoros, C. S., et.al., Diabetes, 1996, 45, 909-914. The four fragments are ligated into a pUC 18 plasmid (Gibco-BRL) and sequenced. Full-length β3-AR clones (402 amino acids) containing the last 6 amino acids of hβ3-AR are prepared with the β3-β[…]3 from ATTC. Binding Procedure: Clones expressing receptor levels of 70 to 110 fmoles/mg protein were used in the test procedures. CHO cells were grown in 24-well tissue culture plates in Dulbecco's Modified Eagle Media with 10% fetal bovine serum, MEM non-essential amino acids, Penicillin-Streptomycin and Geneticin. On the day of test procedure, growth medium was replaced with preincubation media (Dulbecco's Modified Eagle Media) and incubated for 30 minutes at 37° C. […] Isoproterenol (10^-5 M) was used as an internal standard for comparison of activity. Cells were incubated at 37° C. on a rocker for 30 min with the β3-AR transfected cells and 15 min with β1-AR and β2-AR transfected cells. Incubation was stopped by the addition of 0.2N HCl and the acid was neutralized with 2.5N NaOH. The plates, containing the cells and neutralized media, were stored at -20 ° C. until ready to test for cAMP using the SPA test kit (Amersham). Data Analysis and Results: Data collected from the SPA test procedure were analyzed as percent of the maximal isoproterenol response at 10^-5 M. Activity curves were plotted using the SAS statistical and graphics software. […] IA=% activity compound % activity isoproterenol
SMILES,pEC50 (human β3-AR),IA(β3) (human β3-AR),melting point
"O=S1(=O)N=C(NCCc2ccc(F)cc2)C(Nc2ccc(N3CCC(NC[C@H](O)COc4ccc(O)cc4)CC3)cc2)=N1 [Example 5, 4-((2S)-3-[1-(4-{4-[2-(4-Fluoro-phenyl)-ethylamino]-1,1-dioxo-1H-1.lambda(6).-[1,2,5]thiadiazol-3-ylamino}-phenyl)-piperidin-4-ylamino]-2-hydroxy-propoxy}-phenol]",8.10,1.0,–
"COC(=O)[C@@H](Cc1ccccc1)Nc1c(Nc2ccc(N3CCC(NC[C@H](O)c4ccc(O)c(NS(C)(=O)=O)c4)CC3)cc2)c(=O)c1=O (hydrate or solvate) [Example 2, Methyl (2R)-2-{[2-(4-{4-[((2R)-2-hydroxy-2-{4-hydroxy-3-[(methylsulfonyl)amino]phenyl}ethyl)amino]piperidin-1-yl}anilino)-3,4-dioxocyclobut-1-en-1-yl]amino}-3-phenylpropanoate]",–,–,240 °C (dec.)
COc1ccc(CCNC2=NS(=O)(=O)N=C2Nc2ccc(N3CCC(NC[C@H](O)COc4ccc(O)cc4)CC3)cc2)cc1 [Example 1],6.20,0.69,–
"COC(=O)[C@@H](Cc1ccccc1)Nc1c(Nc2ccc(N3CCC(NC[C@H](O)c4ccc(O)c(NS(C)(=O)=O)c4)CC3)cc2)c(=O)c1=O [Example 2, Methyl (2R)-2-{[2-(4-{4-[((2R)-2-hydroxy-2-{4-hydroxy-3-[(methylsulfonyl)amino]phenyl}ethyl)amino]piperidin-1-yl}anilino)-3,4-dioxocyclobut-1-en-1-yl]amino}-3-phenylpropanoate]",6.70,0.80,–

# Further lines, results first:
pEC50 (human β3-AR),IA(β3) (human β3-AR),melting point,SMILES
7.38,0.9,–,"COC(=O)C(Cc1ccccc1)NC1=NS(=O)(=O)N=C1Nc1ccc(N2CCC(NCC(O)c3ccc(O)c(NS(C)(=O)=O)c3)CC2)cc1 [Example 6, Methyl 2-{[4-(4-{4-[((2R)-2-hydroxy-2-{4-hydroxy-3-[(methylsulfonyl)amino]phenyl}ethyl)amino]piperidin-1-yl}anilino)-1,1-dioxido-1,2,5-thiadiazol-3-yl]amino}-3-yl]amino}-3-phenylpropanoate]"
7.00,0.40,120 °C (dec.),"COC(=O)CNC1=NS(=O)(=O)N=C1Nc1ccc(N2CCC(NC[C@H](O)c3ccc(O)c(NS(C)(=O)=O)c3)CC2)cc1 [Example 3, Methyl {[4-(4-{4-[((2R)-2-hydroxy-2-{4-hydroxy-3-[(methylsulfonyl)amino]phenyl}ethyl)amino]piperidin-1-yl}anilino)-1,1-dioxido1,2,5-thiadiazol-3-yl]amino}acetate]"
8.40,0.96,198 to 204 °C,"CCCCCCCCNC1=NS(=O)(=O)N=C1Nc1ccc(N2CCC(NC[C@H](O)COc3ccc(O)cc3)CC2)cc1 [Example 4, 4-((2S)-2-Hydroxy-3-{1-[4-(4-octylamino-1,1-dioxo-1H-1.lambda(6)-[1,2,5]thiadiazol-3ylamimo)-phenyl]-piperidin-4-ylamino}-propoxy)-phenol]"
–,–,210 °C (dec.),"COC(=O)C(Cc1ccccc1)NC1=NS(=O)(=O)N=C1Nc1ccc(N2CCC(NCC(O)c3ccc(O)c(NS(C)(=O)=O)c3)CC2)cc1 (hydrate or solvate) [Example 6, Methyl 2-{[4-(4-{4-[((2R)-2-hydroxy-2-{4-hydroxy-3-[(methylsulfonyl)amino]phenyl}ethyl)amino]piperidin-1-yl}anilino)-1,1-dioxido-1,2,5-thiadiazol-3-yl]amino}-3-yl]amino}-3-phenylpropanoate]"

# Source: patent US6509358B2, “Piperidino-phenyl amino squarate and thiadiazole dioxide beta-3 adrenergic receptor agonists” (Wyeth, priority 2000, dated 2003)
